Data published in patent US6491953B1, “Controlled release compositions and method” (Amcol International Corporation, priority 1999, dated 2002).

Tests used:
Format in all cases: physicochemical
[1] = Adsorption / entrapment of solid and liquid materials on POLYPORE E 200 microparticles (Example 1); conditions: adsorbed on microparticles of Example 1 (POLYPORE E 200)
From the text: The adsorbent polymer microparticles made by the suspension polymerization technique include at least two polyunsaturated monomers, preferably allyl methacrylate and an ethylene glycol dimethacrylate, and, optionally, monounsaturated monomers. The microparticles are characterized by being open to their interior, due to either particle fracture upon removal of a porogen after polymerization or to subsequent milling. […] In a preferred embodiment, the broken sphere microparticles are characterized by a mean unit diameter from about 1 to about 50 microns, more preferably from about 1 to about 25 microns, most preferably, from about 1 to about 20 microns.
The copolymer powder of Example 1 was mixed with zinc pyrithione (solids having a particle size of 3 to 5 microns slurried in water) in an amount of 12 grams of slurry per one gram of the copolymer, then dried in an oven at 80° C. to evaporate water. […] Zinc pyrithione was supplied by Ruetger Nease Company, as mixture of 48% of zinc pyrithione, 51% water, and 1% zinc chloride, and is used as antidandruff component in hair care products, e.g., antidandruff shampoos.
The copolymer of Example 1 was loaded with a methanol/salicylic acid solution in an amount of 12 grams per gram, and dried in an oven at 80° C. to evaporate the methanol. […] Salicylic acid is an antiseptic and antifungal agent.
Retinol was dissolved in same amount of ether. The solution (5.5 grams) was adsorbed on 1 gram of the adsorbent polymer of Example 1. […] Usually retinol is in the form of sticky crystals, is light sensitive, and is skin irritant. Retinol is used in cosmetic formulations and as a vitamin.

[2] = Adsorption / entrapment of solid and liquid active agents on POLYPORE L 200 microparticles (Example 2); conditions: adsorbed on microparticles of Example 2 (POLYPORE L 200)
Description: The copolymer of Example 2 was loaded with a methanol/salicylic acid solution to an amount of 12 grams per gram, and dried in an oven at 80° C. to evaporate methanol. The resulting dry product was a white, fine powder, with […] entrapped salicylic acid, i.e., 2.8 grams per gram.
Retinol was dissolved in an equal weight amount of ether, then 5.5 grams of the solution was adsorbed on 1 gram of the adsorbent polymer of Example 2. Thereafter, ether was evacuated under vacuum, and a free-flowing light yellow powder was obtained. The adsorbed amount of retinol was 2.75 grams per gram, i.e., 73%. Usually, retinol is in form of sticky crystals, is light sensitive, and a skin irritant.
The microparticles of Example 2 (POLYPORE™ L 200) also had various other solid and liquid active agents adsorbed thereto, as shown in Table 2: […]

[3] = Stability (discoloration) of ascorbic acid compositions added to water
Description: The stability of the three compositions was tested by adding individual portions of the three compositions to water at 25° C. and at 45° C. A control solution of 1-ascorbic acid in water discolored after four hours at 45° C. and after five days at room temperature. […] A polymer-ascorbic acid solution, without the addition of a release retardant, also discolored during the test. Accordingly, a release retardant protects and stabilizes an active agent adsorbed onto an adsorbent polymer.

Molecule	Free-Flowing (g/g) adsorbed [1]	Total (g/g) adsorbed [1]	Free-Flowing (g/g) adsorbed [2]	Total (g/g) adsorbed [2]	time after which solution discolored ([3]; in water at 45° C.)	time after which solution discolored ([3]; in water at room temperature)
CCCCCCCCCCCCCC(=O)OC(C)C [Isopropyl Myristate]	8.0 g/g	10.7 g/g	9.5 g/g	11.4 g/g		
Cyclomethicone [Cyclomethicone (DC 244)]	9.6 g/g	12.0 g/g	10.8 g/g	15.0 g/g		
COc1ccc(C(=O)c2ccccc2)c(O)c1 [Benzophenone-3]	9.2 g/g	12.3 g/g	9.1 g/g	12.8 g/g		
O=C1O[C@H]([C@@H](O)CO)C(O)=C1O [1-ascorbic acid]					four	five
CC(=O)Oc1c(C)c(C)c2c(c1C)CCC(C)(CCC[C@H](C)CCC[C@H](C)CCCC(C)C)O2 (stereo partly shown) [Vitamin E Acetate]	5.6 g/g	7.2 g/g	7.0 g/g	9.2 g/g		
OCC(O)CO [Glycerin]	6.0 g/g	8.0 g/g	7.6 g/g	10.0 g/g		
CC(=O)OCc1ccccc1 [Benzyl Acetate]	10.2 g/g	12.3 g/g	9.9 g/g	12.7 g/g		
Oc1cc(Cl)ccc1Oc1ccc(Cl)cc1Cl [IRGASAN DP 300, 5-chloro-2-(2,4-dichlorophenoxy)phenol]		10.0 g/g		10.7 g/g		
